Assay results as given in the supplement of paper PMC10307832.

Columns and labels:
Test in all cases: relative viability (nuclei count vs DMSO), 5 days (fraction); higher = more cells survive
FG-4592 + Foretinib = compound: Cc1nc(C(=O)NCC(=O)O)c(O)c2ccc(Oc3ccccc3)cc12 [FG-4592] + COc1cc2c(Oc3ccc(NC(=O)C4(C(=O)Nc5ccc(F)cc5)CC4)cc3F)ccnc2cc1OCCCN1CCOCC1 [Foretinib] (partner 0.25 µM)
How it was run: (§1)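 Lung cancer cell lines were pin-tool dosed in 1536-well plates on the day after seeding, with either a lone drug or a fixed anchor-drug dose plus five library-drug doses (not always all listed) in √10 steps. Nuclei were counted on 4× images after 5 days. Relative viability is the ratio of treated-well to vehicle-well nuclei counts, with each value a median of duplicate plates.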

FG-4592 + Pictilisib = compound: Cc1nc(C(=O)NCC(=O)O)c(O)c2ccc(Oc3ccccc3)cc12 [FG-4592] + CS(=O)(=O)N1CCN(Cc2cc3nc(-c4cccc5[nH]ncc45)nc(N4CCOCC4)c3s2)CC1 [Pictilisib] (partner 1 µM)
How it was run: as §1

IU1-47 = compound: CC1=CC(=C(N1C2=CC=C(C=C2)Cl)C)C(=O)CN3CCCCC3 [IU1-47]
How it was run: (§2)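 Viability was defined as treated-well nuclei divided by vehicle-well nuclei, with the median taken over replicate plates. Cells from lung cancer lines sat overnight at 37 °C in 1536-well plates, received five √10-spaced library-drug doses by pinning on vehicle-anchored plates, and grew 5 days without medium change before one-step fixation, permeabilisation and Hoechst staining, 4× imaging and MetaXpress nuclear counts. Only plates with control CV under 25% and at least one doubling were kept.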

FG-4592 = compound: Cc1nc(C(=O)NCC(=O)O)c(O)c2ccc(Oc3ccccc3)cc12 [FG-4592]
How it was run: as §2

For UMC-11, the relative viability (FG-4592 + Foretinib; first compound 0.08 µM) was 1.06, the relative viability (FG-4592 + Foretinib; first compound 0.253 µM) was 1.03 and the relative viability (FG-4592 + Foretinib; first compound 0.8 µM) was 0.918. The relative viability (FG-4592 + Foretinib; first compound 2.53 µM) was 1.03, the relative viability (FG-4592 + Foretinib; first compound 8 µM) was 0.671 and the relative viability (FG-4592 + Pictilisib; first compound 0.08 µM) was 0.722. The relative viability (FG-4592 + Pictilisib; first compound 0.253 µM) was 0.714, the relative viability (FG-4592 + Pictilisib; first compound 0.8 µM) was 0.599 and the relative viability (FG-4592 + Pictilisib; first compound 2.53 µM) was 0.74. The relative viability (FG-4592 + Pictilisib; first compound 8 µM) was 0.7, the relative viability (IU1-47; 0.08 µM) was 1.01 and the relative viability (IU1-47; 0.253 µM) was 0.961. The relative viability (IU1-47; 0.8 µM) was 1.01, the relative viability (IU1-47; 2.53 µM) was 0.991 and the relative viability (IU1-47; 8 µM) was 0.922. It also gave a relative viability (FG-4592; 0.08 µM) of 0.952, a relative viability (FG-4592; 0.253 µM) of 0.928 and a relative viability (FG-4592; 0.8 µM) of 0.806. The relative viability (FG-4592; 2.53 µM) was 1.07 and the relative viability (FG-4592; 8 µM) was 0.804.
